In publication PMC12638379, “An innovative approach to development of new pyrazolylquinolin-2-one hybrids as dual EGFR and BRAF^V600E inhibitors” (Molecular Diversity, 2025):
Read-outs that look alike come from different tables or passages of the source.

Assays:
[1] = test system: lung cancer (HOP-92) cell line; assay: MTT antiproliferative assay, HOP-92; assay type: cell-based, human; settings: for viability at 0.4 µM / viability at 1.6 µM / viability at 6.3 µM / viability at 25 µM / viability at 100 µM / IC50: Homo sapiens; for viability at 0.4 µM / viability at 1.6 µM / viability at 6.3 µM / viability at 25 µM / viability at 100 µM: HOP-92, HOP-92, MTT
Experimental: […]. […] See Appendix B.
After 24 h of culture incubation and supernatants discarded.

caspase-9 = assay: Caspase-9 level in HOP-92 cells (RT-PCR fold change); assay type: cell-based, human; settings: for Gene Expression FLD 2^ ΔΔCT Casp9: vs GAPDH, E=1.869, control = 1
Source text: (§1) In the depicted findings, compound 4e affected Bcl-2, caspase-3, and caspase-9, increasing the expression of caspase-3/9 and decreasing the expression of Bcl-2, confirming the apoptotic status.
(§2) Researcher : Dr.Mohamed Hawas email: mohhawwas80@gmail.com mob. 01151345909 Assay : Cell Cycle Analysis mohamedhassan.pharm.ast@azhr.edu.eg Assay : RT-PCR Samples : 02 SamplesCell lines : ----Ref. : ----Date : 12-06-2023Reader : Rotorgene RT- PCR system Kit used : Qiagen RNA extraction/BioRad syber green PCR MMXSolvent : DMSOAssay samples : Cell Lysate
Cells were obtained from American Type Culture Collection, cells were grown in RPMI 1640 containing 10% fetal bovine serum at 37°C, stimulated with the compounds to be tested […], and lysed with Cell Extraction Buffer. This lysate was diluted in Standard Diluent Buffer over the range of the assay and measured for human active caspase-8 or 9 content. […] The absorbance of each microwell was read on a spectro-photometer at 450 nm. A standard curve is prepared from 7 human Caspases standard dilutions and human Caspase-8 or 9 concentration determined.

caspase-3 = assay: Caspase-3 level in HOP-92 cells (RT-PCR fold change); assay type: cell-based, human; settings: for Gene Expression FLD 2^ ΔΔCT Casp3: vs GAPDH, E=1.869, control = 1
Source text: as §1, §2
Allow all reagents to reach room temperature before use. Gently mix all liquidreagents prior to use. Determine the number of 8-well strips needed for the assay. Insert these in the frame(s) for current use. Add 100 μl of the Standard Diluent Buffer to the zero standard wells. Well(s) reserved for chromogen blank should be left empty. Add 100 μl of standards and controls or diluted samples to the appropriate microtiter wells. The sample dilution chosen should be optimized for each experimental system. Tap gently on side of plate to mix. Cover wells with plate cover and incubate for 2 hours at room temperature. Thoroughly aspirate or decant solution from wells and discard the liquid, Wash wells 4 times. Pipette 100 μl of Caspase-3 (Active) Detection Antibody solution into each well except the chromogen blank(s). Tap gently on the side of the plate to mix. Cover plate with plate cover and incubate for 1 hour at room temperature. Thoroughly aspirate or decant solution from wells and discard the liquid, Wash wells 4 times. Add 100 μl Anti-Rabbit IgG HRP Working Solution to each well except the chromogen blank(s). Prepare the working dilution as described in Preparing IgG HRP. Cover wells with the plate cover and incubate for 30 minutes at room temperature. Thoroughly aspirate or decant solution from wells and discard the liquid. Wash wells 4 times. Add 100 μl of Stabilized Chromogento each well. The liquid in the wells will begin to turn blue. Incubate for 30 minutes at room temperature and in the dark. The incubation time for chromogen substrate is often determined by the microtiter platereader used. Many plate readers have the capacity to record a maximum optical density (O.D.) of 2.0. The O.D. values should be monitored and the substrate reaction stopped before the O.D. of the positive wells exceeds the limits of the instrument. The O.D. values at 450 nm can only be read after the Stop Solution has been added to each well. […] Read the absorbance of each well at 450 nm having blanked the plate reader against a chromogen blank composed of 100 μl each of StabilizedChromogenand Stop Solution. Read the plate within 2 hours after adding the Stop Solution. […] Read the concentrations for unknown samples and controls from the standard curve. […]

Bcl-2 = Bcl-2 level in HOP-92 cells (RT-PCR fold change); assay type: cell-based, human; settings: for Gene Expression FLD 2^ ΔΔCT bcl2: vs GAPDH, E=1.869, control = 1
Source text: as §1, §2
Mix all reagents thoroughly without foaming before use. Wash the microwells twice with approximately 300 μL Wash Buffer per well with thorough aspiration of microwell contents between washes. Take caution not to scratch the surface of the microwells. After the last wash, empty the wells and tap microwell strips on absorbent pad or paper towel to remove excess Wash Buffer. Use the microwell strips immediately after washing or place upside down on a wet absorbent paper for not longer than 15 minutes. […] Add 100 μL of Sample Diluent in duplicate to all standard wells and to the blank wells. Prepare standard (1:2 dilution) in duplicate ranging from 32 ng/mL to 0.5 ng/mL. Add 100 μL of Sample Diluent, in duplicate, to the blank wells. Add 80 μL of Sample Diluent, in duplicate, to the sample wells. Add 20 μL of each Sample, in duplicate, to the designated wells. Add 50 μL of diluted biotin-conjugate to all wells, including the blank wells. […] The point, at which the substrate reaction is stopped, is often determined by the ELISA reader. Many ELISA readers record absorbance only up to 2.0 O.D. Therefore, the color development within individual microwells must be watched by the person running the assay and the substrate reaction stopped before positive wells are no longer properly detectable. […] Results must be read immediately after the Stop Solution is added or within one hour if the microwell strips are stored at 2 - 8°C in the dark. Read absorbance of each microwell on a spectrophotometer using 450 nm as the primary wave length.

normal cell line WI-38 = settings: human, 0.4 µM
[2] = HOP-92, MTT, read-out: Antiproliferative activity IC50 ± SEM, HOP-92

Which results are given for C/C(=N\Nc1ccc(S(N)(=O)=O)cc1)c1cnn(-c2cc(=O)[nH]c3ccc(Cl)cc23)c1C [Compound 4d, (E)-4-(2-(1-(1-(6-chloro-2-oxo-1,2-dihydroquinolin-4-yl)-5-methyl-1H-pyrazol-4-yl)ethylidene)hydrazineyl)benzenesulfonamide]?
% viability ([1]; HOP-92, MTT, 0.4uM, listed as Ws4, 0.4 µM): 85.21%; % viability ([1]; HOP-92, MTT, 1.6uM, listed as Ws4, 1.6 µM): 75.93%; % viability ([1]; HOP-92, MTT, 6.3uM, listed as Ws4, 6.3 µM): 64.52%; % viability ([1]; HOP-92, MTT, 25uM, listed as Ws4, 25 µM): 52.12%; % viability ([1]; HOP-92, MTT, 100uM, listed as Ws4, 100 µM): 42.18%; viability at 0.4 µM ([1]; 0.4uM, read-out: % viability): 85.2%; viability at 1.6 µM ([1]; 1.6uM, read-out: % viability): 75.9%; viability at 6.3 µM ([1]; 6.3uM, read-out: % viability): 64.5%; viability at 25 µM ([1]; 25uM, read-out: % viability): 52.1%; viability at 100 µM ([1]; 100uM, read-out: % viability): 42.2%; IC50 [1, 2]: 36.5 ± 1.46 µM

How did the “RT-PCR Fold Change FLD Casp9” value (caspase-9; control = 1) turn out when C/C(=N\Nc1ccc(S(N)(=O)=O)cc1)c1cnn(-c2cc(=O)[nH]c3ccc(Br)cc23)c1C [Compound 4e, (E)-4-(2-(1-(1-(6-bromo-2-oxo-1,2-dihydroquinolin-4-yl)-5-methyl-1H-pyrazol-4-yl)ethylidene)hydrazineyl)benzenesulfonamide] was run?
The value was 3.082.

What about the “Gene Expression FLD 2^ ΔΔCT Casp9” value (caspase-9) of the same molecule?
Its value is 3.0825.

And the “RT-PCR Fold Change Casp-9” value (caspase-9; vs untreated control)?
The value was 3.082 fold.

And the “RT-PCR Fold Change FLD Casp3” value (caspase-3; control = 1)?
The value was 4.716.

What about the “Gene Expression FLD 2^ ΔΔCT Casp3” value (caspase-3) of the same molecule?
The value was 4.7162.

And the “RT-PCR Fold Change Casp-3” value (caspase-3; vs untreated control)?
Its value is 4.716 fold.

What about the “RT-PCR Fold Change FLD Bcl2” value (Bcl-2; control = 1) of the same molecule?
The value was 0.299.

What about the “Gene Expression FLD 2^ ΔΔCT bcl2” value (Bcl-2) of the same molecule?
Its value is 0.2991.

What about the “% viability” value ([1]; HOP-92, MTT, 0.4uM, listed as Ws5, 0.4 µM) of the same molecule?
Its value is 71.413%.

What about the “% viability” value ([1]; HOP-92, MTT, 1.6uM, listed as Ws5, 1.6 µM) of the same molecule?
The value was 60.375%.

What about the “% viability” value ([1]; HOP-92, MTT, 6.3uM, listed as Ws5, 6.3 µM) of the same molecule?
The value was 47.848%.

And the “% viability” value ([1]; HOP-92, MTT, 25uM, listed as Ws5, 25 µM)?
Its value is 34.437%.

And the viability at 0.4 µM ([1]; 0.4uM, read-out: % viability)?
The viability at 0.4 µM was 71.4%.

And the viability at 1.6 µM ([1]; 1.6uM, read-out: % viability)?
The viability at 1.6 µM was 60.4%.

What about the viability at 6.3 µM ([1]; 6.3uM, read-out: % viability) of the same molecule?
The viability at 6.3 µM was 47.9%.

And the viability at 25 µM ([1]; 25uM, read-out: % viability)?
The viability at 25 µM was 34.4%.

What about the viability at 100 µM ([1]; 100uM, read-out: % viability) of the same molecule?
Its viability at 100 µM is 26.5%.

And the IC50 ([1]; HOP-92, HOP-92, concentration used in RT-PCR, read-out: IC50)?
Its IC50 is 4.98 µM.

And the IC50 ([1]; HOP-92, HOP-92, concentration used in apoptosis assay, read-out: Conc IC50)?
The IC50 was 4.98 µM.

What about the IC50 ([1]; HOP-92, HOP-92, concentration used in cell cycle analysis, read-out: IC50) of the same molecule?
The IC50 was 4.98 µM.

What about the IC50 [1, 2] of the same molecule?
The IC50 was 4.98 ± 0.2 µM.

For C/C(=N\Nc1ccc(C(=O)O)cc1)c1cnn(-c2cc(=O)[nH]c3ccccc23)c1C [Compound 4f, (E)-4-(2-(1-(5-methyl-1-(2-oxo-1,2-dihydroquinolin-4-yl)-1H-pyrazol-4-yl)ethylidene) hydrazineyl)benzoic acid], which “% viability” value ([1]; HOP-92, MTT, 0.4uM, listed as ws6, 0.4 µM) is on record?
The value was 83.3554%.

And the “% viability” value ([1]; HOP-92, MTT, 1.6uM, listed as ws6, 1.6 µM)?
Its value is 74.4032%.

What about the “% viability” value ([1]; HOP-92, MTT, 6.3uM, listed as ws6, 6.3 µM) of the same molecule?
The value was 64.3236%.

And the “% viability” value ([1]; HOP-92, MTT, 100uM, listed as ws6, 100 µM)?
Its value is 35.3448%.

What about the viability at 0.4 µM ([1]; 0.4uM, read-out: % viability) of the same molecule?
Its viability at 0.4 µM is 83.4%.

And the viability at 1.6 µM ([1]; 1.6uM, read-out: % viability)?
Its viability at 1.6 µM is 74.4%.

And the viability at 6.3 µM ([1]; 6.3uM, read-out: % viability)?
The viability at 6.3 µM was 64.3%.

What about the viability at 25 µM ([1]; 25uM, read-out: % viability) of the same molecule?
The viability at 25 µM was 51.8%.

And the viability at 100 µM ([1]; 100uM, read-out: % viability)?
The viability at 100 µM was 35.3%.

And the IC50 [1, 2]?
Its IC50 is 24.9 ± 1.9 µM.

What does the source list for C/C(=N\Nc1ccc(C(=O)O)cc1)c1cnn(-c2cc(=O)[nH]c3ccc(C)cc23)c1C [Compound 4g, (E)-4-(2-(1-(5-methyl-1-(6-methyl-2-oxo-1,2-dihydroquinolin-4-yl)-1H-pyrazol-4-yl)ethylidene)hydrazineyl)benzoic acid]?
% viability ([1]; HOP-92, MTT, 25uM, listed as Ws7, 25 µM): 48.02%; % viability ([1]; HOP-92, MTT, 100uM, listed as Ws7, 100 µM): 33.71%; viability at 0.4 µM ([1]; 0.4uM, read-out: % viability): 78%; viability at 1.6 µM ([1]; 1.6uM, read-out: % viability): 67%; viability at 6.3 µM ([1]; 6.3uM, read-out: % viability): 56.5%; viability at 25 µM ([1]; 25uM, read-out: % viability): 48%; viability at 100 µM ([1]; 100uM, read-out: % viability): 33.7%; IC50 [1, 2]: 14.7 ± 0.66 µM

CN[C@@H]1C[C@H]2O[C@@](C)([C@@H]1OC)n1c3ccccc3c3c4c(c5c6ccccc6n2c5c31)C(=O)NC4 [Staurosporine, reference compound] was tested. Which “Gene Expression FLD 2^ ΔΔCT Casp9” value (caspase-9) did it give?
The value was 5.5143.

What about the “Gene Expression FLD 2^ ΔΔCT Casp3” value (caspase-3) of the same molecule?
The value was 6.9067.

What about the “Gene Expression FLD 2^ ΔΔCT bcl2” value (Bcl-2) of the same molecule?
Its value is 0.3265.

And the “% viability” value (normal cell line WI-38)?
The value was 84.55%.

And the “% viability” value ([1]; HOP-92, MTT, 0.4uM, listed as STA)?
The value was 69.37%.

And the “% viability” value ([1]; HOP-92, MTT, 1.6uM, listed as STA)?
The value was 61.2%.

And the “% viability” value ([1]; HOP-92, MTT, 6.3uM, listed as STA)?
The value was 43.16%.

And the “% viability” value ([1]; HOP-92, MTT, 100uM, listed as STA)?
The value was 17.16%.

And the viability at 0.4 µM ([1]; 0.4uM)?
The viability at 0.4 µM was 69.4%.

And the viability at 1.6 µM ([1]; 1.6uM)?
The viability at 1.6 µM was 61.2%.

And the viability at 6.3 µM ([1]; 6.3uM)?
Its viability at 6.3 µM is 43.2%.

What about the viability at 25 µM ([1]; 25uM) of the same molecule?
Its viability at 25 µM is 24.7%.

What about the viability at 100 µM ([1]; 100uM) of the same molecule?
The viability at 100 µM was 17.2%.

What about the IC50 [1, 2] of the same molecule?
Its IC50 is 3.17 ± 0.19 µM.

And the IC50 ([1]; HOP-92, concentration used in RT-PCR, read-out: IC50)?
Its IC50 is 3.17 µM.
